We go through six molecules from patent US7208140B2, “Trimeric macrocyclic substituted benzene derivatives” (Schering Aktiengesellschaft, priority 2003, dated 2007).

Where “and” joins values, the source holds several entries; their conditions need not be identical. Equal entries are not always repeated. Some results are limits rather than exact numbers.

Data set [1] relates to Epithelial cell line MDCK. The data set can be described thus: Neutral red test of cell viability in epithelial cells of the distal renal tubule. Type of data set: cell-based, canine. Conditions: 50% reduction of cell viability after 24 hours. As to the method:
To determine the IC-50, the neutral red test was used in epithelial cells of the distal renal tubule. In addition, this test is very helpful for predicting with high accuracy the LD-50 values of newly synthesized compounds.
Epithelial cell line MDCK of the renal distal renal tubule of a canine kidney (ECACC No. 85011435) was incubated from 10,000 cells/well in Alpha MEM Eagle (10% fetal bovine serum) at 37° C. and 5% CO2, 95% atmospheric humidity for 20 hours with various Examples 1B, 3F and 5F. Neutral red was used as an indicator for cell viability and for measuring lyosomal integrity and employed to determine those contrast medium concentrations in which a 50% reduction of cell viability (IC-50) occurred after 24 hours.
Four independent replicates were tested for each concentration of contrast medium. […] The latter is a reference compound in clinical practice and a contrast medium with proven excellent compatibility. The highest compatibility was found for Example 3F with 1170 μmol of I eq/ml.

Data set [2] is described as follows: Distribution coefficient in 1-butanol and tris-HCl buffer. Conditions: for Distribution Coefficient of Butanol/Water: 1-butanol and tris-HCl buffer at pH 7.6. Type of data set: physicochemical. How it is done: The distribution coefficient of Example 3F was determined in comparison to Gadovist, iopromide and iotrolan in 1-butanol and tris-HCl buffer at pH 7.6.

For a further data set, the system named is Wistar rats. The experiment in a line: MRT studies (angiography and organ visualization) of rats after intravenous injection. Format: in vivo, rat. Conditions: i.v. How it is done: The same substance (IB) was examined with the aid of magnetic resonance tomography (MRT) as a contrast medium.
The MRT studies were performed on a 1.5 T device (Siemens Symphonie with 40 mT/m gradients). 400 g Wistar rats were examined with T1-weighted image sequences (angiography TR 2.54 ms, TE 1.12 ms und α=40° or organ visualization TR 54 ms, TE 4.8 ms and α=40°). The angiography (MRA, FIG. 3) was from 0–60 seconds p.i., and the organ visualization (FIGS. 4a and b) was prepared 15 minutes after the injection. Substance 1B was formulated as an aqueous solution at a concentration of 0.17 mol/l (corresponds to 0.5 mol of Gd/l) and was intravenously injected in a dose of 0.03 mmol of substance or 0.1 mmol of Gd/kg.

In a further data set the test system is Male Wistar rats. The experiment in a line: CT studies (computer tomography) of rats after intravenous injection. Format: in vivo, rat. Conditions: i.v. As to the method: By way of example, the suitability of the described compound class was examined in Example 1B with the aid of computer tomography (CT) of rats. For the CT studies, a Siemens Somatom CR was available. The 5-second image was prepared with a layer thickness of 2 mm and a tube voltage of 125 kV. Substance 1B was formulated as an aqueous solution at a concentration of 0.17 mol/l (corresponds to 145 mg (1+Gd)/ml.
Male Wistar rats (400 g of body weight) were scanned before (FIG. 1a) and after intravenous injection (FIG. 1) of 1B in a dose of 0.15 mmol/kg (corresponds to 127 mg of (I+Gd)/kg).
This early phase reflects the blood perfusion of the renal cortex.

As to `O=C([O-])CN1CCN(CC(=O)[O-])CCN([C@H](CO)[C@H](O)CO)CCN(CC(=O)[O-])CC1.[Gd+3]` (racemic) [Gadobutrol, reference compound], the IC50 in data set [1] is given as 153 μmol of I eq/ml. For the same molecule, in data set [2], the “Distribution Coefficient of Butanol/Water” value worked out at 0.006 ± 0.0007.

With `COCC(=O)Nc1c(I)c(C(=O)NCC(O)CO)c(I)c(C(=O)N(C)CC(O)CO)c1I` (stereo not drawn) [Iopromide], the “distribution coefficient of butanol/water relative to Example 3F” value in data set [2] (0.051 vs. 0.0002) was no more than 255 ×. Besides, the “Distribution Coefficient of Butanol/Water” value came to 0.051 ± 0.003 in data set [2] and 0.051 in data set [2] (listed as lopromide).

For `CC(C(=O)NCC(=O)NCCNC(=O)c1c(I)c(C(=O)NCCNC(=O)CNC(=O)C(C)N2CCN(CC(=O)[O-])CCN(CC(=O)[O-])CCN(CC(=O)[O-])CC2)c(I)c(C(=O)NCCNC(=O)CNC(=O)C(C)N2CCN(CC(=O)[O-])CCN(CC(=O)[O-])CCN(CC(=O)[O-])CC2)c1I)N1CCN(CC(=O)[O-])CCN(CC(=O)[O-])CCN(CC(=O)[O-])CC1.[Gd+3].[Gd+3].[Gd+3]` (stereo not drawn) [Example 1B, 1,3,5-Triiodotrimesic acid-N,N,N-tris-(3,6-diaza-4,7-dioxo-8-methyloctane-1,8-diyl-{10-[1,4,7-tris-(carboxylatomethyl)-1,4,7,10-tetraazacyclododecanyl, Gd-complex]})amide], the “MRA visualization of arteries and heart” value in the data set with Wistar rats (0.03 mmol of substance or 0.1 mmol of Gd/kg, 1.5 T, 0-60 seconds p.i.) is recorded as “excellent ability to visualize the large arteries (aorta, femoral artery) as well as the heart”. The “MRT whole-body image, organ contrasting” value in the data set with Wistar rats (0.1 mmol of Gd/kg, 1.5 T, 15 minutes after the injection) is listed as “clear contrasting of liver (L) as well as kidneys”. In the data set on Wistar rats (0.1 mmol of Gd/kg, 15 minutes after the injection), the “renal elimination (ureter visualized in MRT)” value was “quick renal elimination”. The IC50 in data set [1] was 930 μmol of I eq/ml. Also, the “CT contrasting of vessels and renal cortex (early phase)” value in the data set with Male Wistar rats (0.15 mmol/kg (127 mg of (I+Gd)/kg), 125 kV) was “very clear contrasting of the blood-conveying vessels (A) and the renal cortex (N)”. In addition, the “renal excretion (contrasting of renal pelvis in CT)” value with Male Wistar rats (0.15 mmol/kg, 15 minutes later) is recorded as “quick renal excretion”.

`O=C([O-])CN1CCN(CC(=O)[O-])CCN(CC(=O)NCCNC(=O)c2c(I)c(C(=O)NCCNC(=O)CN3CCN(CC(=O)[O-])CCN(CC(=O)[O-])CCN(CC(=O)[O-])CC3)c(I)c(C(=O)NCCNC(=O)CN3CCN(CC(=O)[O-])CCN(CC(=O)[O-])CCN(CC(=O)[O-])CC3)c2I)CCN(CC(=O)[O-])CC1.[Gd+3].[Gd+3].[Gd+3]` [Example 3F, 2,4,6-Triiodotrimesic acid-N,N,N-tris-(3-aza-4-oxopentane-1,5-diyl-{10-[1,4,7-tris-(carboxylatomethyl)-1,4,7,10-tetrazacyclododecanyl, Gdcomplex]})amide]: in data set [1], the IC50 is recorded as 1170 μmol of I eq/ml. Also, the “Distribution Coefficient of Butanol/Water” value in data set [2] was 0.0002 and 0.0002 ± 0.0001.

In the case of `CN(C(=O)CC(=O)N(C)c1c(I)c(C(=O)NC(CO)C(O)CO)c(I)c(C(=O)NC(CO)C(O)CO)c1I)c1c(I)c(C(=O)NC(CO)C(O)CO)c(I)c(C(=O)NC(CO)C(O)CO)c1I` (stereo not drawn) [Iotrolan], the “Distribution Coefficient of Butanol/Water” value in data set [2] amounted to 0.0065 ± 0.002.

Regarding `O=C([O-])CN1CCN(CC(=O)[O-])CCN(CC(O)CNC(=O)c2c(I)c(C(=O)NCC(O)CN3CCN(CC(=O)[O-])CCN(CC(=O)[O-])CCN(CC(=O)[O-])CC3)c(I)c(C(=O)NCC(O)CN3CCN(CC(=O)[O-])CCN(CC(=O)[O-])CCN(CC(=O)[O-])CC3)c2I)CCN(CC(=O)[O-])CC1.[Gd+3].[Gd+3].[Gd+3]` (stereo not drawn) [Example 5G, 1,3.5-Triiodotrimesic acid-N,N,N-tris-(2-hydroxypropane-1,3-diyl-{10-[1,4,7-tris-(carboxylatomethyl)-1,4,7,10-tetraazacyclododecanyl]}, Gdcomplex)amide], the IC50 in data set [1] is reported as 788 μmol of I eq/ml.
